US20050107438A1, “Pharmaceutical composition comprising 3-[(2-{[4-(Hexyloxycarbonylaminoiminomethyl) phenylamino]-methyl}-1-methyl-1H-benzimidazol-5-carbonyl)-pyridin-2-yl-amino]-propionic acid ethyl ester or a salt therefore” (Boehringer Ingelheim International GmbH, priority 2003, published 2005)

Assay: Solubility of the compound in water as a function of pH
Type: physicochemical
Source text: Therefore, pantoprazole which serves to raise the pH of the stomach was given to the test subjects in one branch of treatment in the clinical trials.

CCCCCCOC(=O)NC(=N)c1ccc(NCc2nc3cc(C(=O)N(CCC(=O)OCC)c4ccccn4)ccc3n2C)cc1 [compound of formula (I), ethyl 3-[(2-{[4-(hexyloxycarbonylaminoiminomethyl)phenylamino]methyl}-1-methyl-1H-benzimidazole-5-carbonyl)pyridin-2-ylamino]propionate]
solubility in water (low pH values): dissolves relatively easily
solubility in water (pH levels above 5, definition of the European Pharmacopoeia): virtually insoluble
